The nature of series [1]: Cytotoxicity of the compounds alone against drug-resistant cancer cells. The settings on record: human, MDA-435/LCC-MDR cells (drug-resistant cancer cells).
Procedure: (§1) The treatment consisted of concurrent exposure of MDA-435/LCC-MDR cells to paclitaxel in the presence or absence of the compounds reversing agent (1 μM) for 72 h in vitro. Assessment of cytotoxicity, i.e. cell growth inhibition, was determined according to the methods of Skehan, et al. as discussed in J. Nat.
(§2) Briefly, cells were plated between 400 and 1200 cells/well in 96 well plates and incubated at 37° C. for 15-18 h prior to drug addiction to allow attachment of cells. Compounds were solubilized in 100% DMSO and further diluted in RPMI-1640 containing 10 mM HEPES. After a 72 h incubation, 100 μl of ice-cold 50% TCA was added to each well and incubated for 1 h at 40° C. Plates were then washed 5 times with tap water to remove TCA, low-molecular weight metabolites and serum proteins. Suforhodamine B (SRB) (0.4%, 50 μl) was added to each well. Following a five minute incubation at room temperature, plates were rinsed 5 times with 0.1% acetic acid and air dried. Bound dye was solubilized with 10 mM Tris Base (pH 10.5) for 5 mm on a gyratory shaker. Optical density was measured at 570 nm.
Series [2] concerns drug-resistant breast cancer cells MDA-435/LCC6-MDR. The experiment in a line: Cytostatic activity of paclitaxel alone or in combination with the compounds (SRB cell growth inhibition). Conditions: IC50 of paclitaxel alone or in presence of compound (reversing agent, 1 μM), MDA-435/LCC6-MDR cells, 72 h. Format: cell-based. The protocol: The compounds were then evaluated in combination with paclitaxel for their cytostatic activity against the drug-resistant breast cancer cells MDA-435/LCC6-MDR.
In the experiments, the compounds were used in combination with paclitaxel, the paclitaxel being at a concentration of 0.3 μM.
Cancer Inst, 82, 1107, 1990.

In series [3] the test system is drug-resistant cancer cells.
Procedure: as §1, §2

With `COc1cc(C=CC(=O)c2c(OCC=C(C)C)ccc3c(=O)c4ccccc4oc23)cc(OC)c1OC` [VIB 178, 1-[3-(3-Methylbut-2-Enyloxy)Xanthen-9-one-4-yl]-3-(3,4,5-Tri-Methoxyphenyl)-Propen-1-one], the 50% inhibitory concentration (IC50) (usually the concentration needed to halve the response being measured) at 72 h in series [1] is > 1000 nM.
As to `COc1cc(C=CC(=O)c2c(OCC=C(C)C)ccc3c(=O)c(C)c(-c4ccccc4)oc23)cc(OC)c1OC` [VIB 173, 1-[3-Methyl-7-(3-Methylbut-2-Enyloxy)Flavon-8-yl]-3-(3,4,5-Tri-Methoxy)Phenyl-Propen-1-one], the half-inhibitory concentration (IC50) at 72 h in series [1] was > 1000 nM.
Regarding `CC(=O)O[C@H]1C(=O)[C@@]2(C)[C@H]([C@H](OC(=O)c3ccccc3)[C@]3(O)C[C@H](OC(=O)[C@H](O)[C@@H](NC(=O)c4ccccc4)c4ccccc4)C(C)=C1C3(C)C)[C@]1(OC(C)=O)CO[C@@H]1C[C@@H]2O` [Paclitaxel, paclitaxel], the IC50 in series [2] came out at 426 nM.
As for “1-[3-Methyl-7-(Prop-2-ynyloxy)flavon-8-yl]-Phenyl-Propen-1-one [VIB 167]”, in series [3], the IC50 was > 1000 nM.
